Experiments:
TLK1 = target: T1, TLK1 (Homo sapiens, UniProt Q9UKI8); experiment: KiNativ in-cell kinase binding, TLK1; conditions: SH-SY5Y cells, Labeling Site Lys2
T1 construct: endogenous in cells; host or cells: SH-SY5Y
Text: (§1) As KINOMEscan is an in vitro assay, and as different cell types have variable kinase expression profiles we sought to determine the kinase binding profile in our SH-SY5Y TFEB-relocalization cell model. […] Bound kinases were pulled down and analyzed by mass spectrometry to determine the in situ kinase binding profile for each compound.

[1] = target: cellular kinases of SH-SY5Y cells (Homo sapiens, UniProt O43318); experiment: biochemical; assay type: binding; conditions: 2µM; SH-SY5Y cells; Labeling Site Lys2; DLKPPNLLLVAGGTVLK; read-out: KiNativ in-cell binding, % Inhibition, MAP3K7
Chain of cellular kinases of SH-SY5Y cells (Homo sapiens, UniProt O43318) (O43318 whole entry): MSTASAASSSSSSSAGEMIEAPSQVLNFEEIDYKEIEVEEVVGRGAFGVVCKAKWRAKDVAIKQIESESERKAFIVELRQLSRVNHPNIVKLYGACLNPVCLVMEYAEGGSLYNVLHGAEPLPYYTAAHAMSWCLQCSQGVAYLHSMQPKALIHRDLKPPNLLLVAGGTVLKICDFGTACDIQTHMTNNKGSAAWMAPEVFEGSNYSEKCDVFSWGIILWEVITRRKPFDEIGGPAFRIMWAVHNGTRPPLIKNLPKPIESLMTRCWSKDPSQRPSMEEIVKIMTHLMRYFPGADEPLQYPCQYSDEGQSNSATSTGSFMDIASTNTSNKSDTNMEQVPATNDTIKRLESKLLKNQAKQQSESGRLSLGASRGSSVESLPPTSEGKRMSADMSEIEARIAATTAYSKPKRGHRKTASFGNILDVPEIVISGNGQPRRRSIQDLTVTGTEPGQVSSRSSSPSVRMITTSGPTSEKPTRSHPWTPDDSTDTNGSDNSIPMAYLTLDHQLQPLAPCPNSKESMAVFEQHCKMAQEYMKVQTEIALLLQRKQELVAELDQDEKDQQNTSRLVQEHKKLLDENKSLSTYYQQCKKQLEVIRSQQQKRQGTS
Text: as §1

[2] = target: cellular kinases of SH-SY5Y cells (Homo sapiens, UniProt Q14012); experiment: biochemical; assay type: binding; conditions: 2µM; SH-SY5Y cells; labeling site Lys1; peptide LVAIKCIAK
Text: as §1

[3] = target: kinases (KINOMEscan panel) (Homo sapiens, UniProt P29317); design: method as in original PKIS2 published data; conditions: EPHA2; Published KINOMEscan; ref original PKIS2 published data; cited from earlier work
Chain of kinases (KINOMEscan panel) (Homo sapiens, UniProt P29317) (P29317 24-976): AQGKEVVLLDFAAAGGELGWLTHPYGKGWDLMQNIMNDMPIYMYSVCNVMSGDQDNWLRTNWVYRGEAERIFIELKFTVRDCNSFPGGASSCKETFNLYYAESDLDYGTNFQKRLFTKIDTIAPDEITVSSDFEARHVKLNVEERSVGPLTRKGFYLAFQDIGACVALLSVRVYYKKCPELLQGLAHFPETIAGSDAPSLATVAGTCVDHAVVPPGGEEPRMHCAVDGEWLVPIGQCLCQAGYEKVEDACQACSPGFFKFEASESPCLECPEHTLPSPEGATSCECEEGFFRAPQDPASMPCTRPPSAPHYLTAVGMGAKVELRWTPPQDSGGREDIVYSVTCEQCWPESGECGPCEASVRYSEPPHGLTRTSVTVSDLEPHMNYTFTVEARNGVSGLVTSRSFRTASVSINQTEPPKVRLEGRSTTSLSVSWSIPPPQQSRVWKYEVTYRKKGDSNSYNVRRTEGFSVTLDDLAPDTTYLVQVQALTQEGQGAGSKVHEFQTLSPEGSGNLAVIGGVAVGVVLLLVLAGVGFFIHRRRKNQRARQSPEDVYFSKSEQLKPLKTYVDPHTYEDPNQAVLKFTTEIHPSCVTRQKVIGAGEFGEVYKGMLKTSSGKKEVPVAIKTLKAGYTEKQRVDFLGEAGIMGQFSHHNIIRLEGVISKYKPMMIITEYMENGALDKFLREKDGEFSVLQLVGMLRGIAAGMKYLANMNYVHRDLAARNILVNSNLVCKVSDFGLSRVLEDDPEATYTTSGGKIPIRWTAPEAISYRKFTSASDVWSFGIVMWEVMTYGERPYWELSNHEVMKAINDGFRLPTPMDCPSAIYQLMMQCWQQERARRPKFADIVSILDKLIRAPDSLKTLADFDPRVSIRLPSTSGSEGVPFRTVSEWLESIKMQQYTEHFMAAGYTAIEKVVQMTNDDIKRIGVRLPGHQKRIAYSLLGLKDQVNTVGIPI

[4] = target: kinases (KINOMEscan panel) (Homo sapiens, UniProt P68400); design: method as in original PKIS2 published data; conditions: CSNK2A1; Published KINOMEscan; ref original PKIS2 published data; cited from earlier work
Chain of kinases (KINOMEscan panel) (Homo sapiens, UniProt P68400) (P68400 whole entry): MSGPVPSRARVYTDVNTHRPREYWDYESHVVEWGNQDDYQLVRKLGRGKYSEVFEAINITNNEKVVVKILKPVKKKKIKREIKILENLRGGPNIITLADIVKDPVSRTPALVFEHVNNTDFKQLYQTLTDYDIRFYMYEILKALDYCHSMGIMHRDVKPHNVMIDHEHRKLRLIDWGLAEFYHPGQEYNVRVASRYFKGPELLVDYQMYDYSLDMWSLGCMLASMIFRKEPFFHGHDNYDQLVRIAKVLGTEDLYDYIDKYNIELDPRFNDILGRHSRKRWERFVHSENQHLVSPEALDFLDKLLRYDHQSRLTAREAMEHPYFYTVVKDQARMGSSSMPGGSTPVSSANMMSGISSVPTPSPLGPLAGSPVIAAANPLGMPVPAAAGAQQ

[5] = target: T2, kinases (KINOMEscan panel) (Homo sapiens, UniProt Q06418); design: method as in original PKIS2 published data; conditions: Published KINOMEscan; ref original PKIS2 published data; cited from earlier work
T2 sequence (Q06418 41-890): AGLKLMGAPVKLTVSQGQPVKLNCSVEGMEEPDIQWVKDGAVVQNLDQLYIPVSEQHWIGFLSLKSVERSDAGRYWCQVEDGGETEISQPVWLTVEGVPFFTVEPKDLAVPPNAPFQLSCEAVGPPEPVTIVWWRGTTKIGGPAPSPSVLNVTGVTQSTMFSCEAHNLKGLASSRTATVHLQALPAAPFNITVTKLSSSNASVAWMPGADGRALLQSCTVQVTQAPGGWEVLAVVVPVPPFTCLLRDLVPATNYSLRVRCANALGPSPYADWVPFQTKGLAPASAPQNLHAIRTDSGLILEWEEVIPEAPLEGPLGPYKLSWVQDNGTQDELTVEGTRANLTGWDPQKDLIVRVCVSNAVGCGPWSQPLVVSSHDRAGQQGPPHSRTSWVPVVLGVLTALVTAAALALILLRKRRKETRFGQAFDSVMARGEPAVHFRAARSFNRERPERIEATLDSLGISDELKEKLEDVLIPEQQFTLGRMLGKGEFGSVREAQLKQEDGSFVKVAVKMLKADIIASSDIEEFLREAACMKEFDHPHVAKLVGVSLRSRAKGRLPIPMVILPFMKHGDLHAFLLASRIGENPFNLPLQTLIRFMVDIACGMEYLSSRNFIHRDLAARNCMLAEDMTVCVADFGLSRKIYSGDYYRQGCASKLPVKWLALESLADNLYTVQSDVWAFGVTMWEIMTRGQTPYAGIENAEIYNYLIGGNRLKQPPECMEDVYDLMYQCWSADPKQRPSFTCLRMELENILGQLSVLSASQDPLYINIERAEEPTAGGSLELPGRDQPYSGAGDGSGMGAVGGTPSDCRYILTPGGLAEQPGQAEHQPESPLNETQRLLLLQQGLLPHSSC

[6] = target: T3, kinases (KINOMEscan panel) (Homo sapiens, UniProt Q6P3R8); design: method as in original PKIS2 published data; conditions: kinase NEK5; Published KINOMEscan; ref original PKIS2 published data; cited from earlier work
T3 sequence (Q6P3R8 1-708): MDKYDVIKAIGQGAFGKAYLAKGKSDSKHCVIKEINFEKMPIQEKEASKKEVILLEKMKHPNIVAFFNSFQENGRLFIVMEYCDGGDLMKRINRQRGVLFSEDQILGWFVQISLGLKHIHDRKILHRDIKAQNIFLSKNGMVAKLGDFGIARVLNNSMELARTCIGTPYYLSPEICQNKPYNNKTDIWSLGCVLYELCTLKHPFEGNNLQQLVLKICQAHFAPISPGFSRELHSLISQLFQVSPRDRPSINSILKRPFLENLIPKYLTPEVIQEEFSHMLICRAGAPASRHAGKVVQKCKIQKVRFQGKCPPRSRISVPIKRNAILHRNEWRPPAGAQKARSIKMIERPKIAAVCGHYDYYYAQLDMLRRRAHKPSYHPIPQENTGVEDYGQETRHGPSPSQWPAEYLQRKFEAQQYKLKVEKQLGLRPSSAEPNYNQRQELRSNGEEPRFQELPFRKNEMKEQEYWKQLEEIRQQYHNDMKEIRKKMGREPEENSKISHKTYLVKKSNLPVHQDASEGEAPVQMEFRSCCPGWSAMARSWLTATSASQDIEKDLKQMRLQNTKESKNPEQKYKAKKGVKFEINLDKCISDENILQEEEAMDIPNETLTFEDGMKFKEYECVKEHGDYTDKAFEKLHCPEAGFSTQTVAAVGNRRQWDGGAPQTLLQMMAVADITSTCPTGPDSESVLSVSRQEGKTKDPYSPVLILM

[7] = target: kinases (KINOMEscan panel) (Homo sapiens, UniProt Q99558); design: method as in original PKIS2 published data; conditions: kinase MAP3K14; Published KINOMEscan; ref original PKIS2 published data; cited from earlier work
[8] = target: kinases (KINOMEscan panel) (Homo sapiens, UniProt Q99755); design: method as in original PKIS2 published data; conditions: Published KINOMEscan; ref original PKIS2 published data; cited from earlier work
Chain of kinases (KINOMEscan panel) (Homo sapiens, UniProt Q99755) (Q99755 whole entry): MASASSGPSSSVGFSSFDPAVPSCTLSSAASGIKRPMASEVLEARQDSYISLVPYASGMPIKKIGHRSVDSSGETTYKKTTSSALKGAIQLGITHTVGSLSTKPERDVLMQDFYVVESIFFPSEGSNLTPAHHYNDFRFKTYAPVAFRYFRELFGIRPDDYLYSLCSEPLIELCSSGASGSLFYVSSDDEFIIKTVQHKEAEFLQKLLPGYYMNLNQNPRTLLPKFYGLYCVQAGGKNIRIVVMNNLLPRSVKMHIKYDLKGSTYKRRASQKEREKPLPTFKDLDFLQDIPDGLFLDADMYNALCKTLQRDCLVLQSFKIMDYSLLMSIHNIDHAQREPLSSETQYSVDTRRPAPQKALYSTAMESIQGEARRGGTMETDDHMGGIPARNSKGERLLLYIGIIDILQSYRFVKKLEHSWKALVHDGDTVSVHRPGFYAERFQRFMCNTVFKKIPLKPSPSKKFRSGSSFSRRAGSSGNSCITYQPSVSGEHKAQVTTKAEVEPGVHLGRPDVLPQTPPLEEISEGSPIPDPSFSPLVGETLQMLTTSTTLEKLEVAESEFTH

[9] = target: kinases (KINOMEscan panel) (Homo sapiens, UniProt Q9H4B4); design: method as in original PKIS2 published data; conditions: kinase PLK3; Published KINOMEscan; ref original PKIS2 published data; cited from earlier work
Chain of kinases (KINOMEscan panel) (Homo sapiens, UniProt Q9H4B4) (Q9H4B4 whole entry): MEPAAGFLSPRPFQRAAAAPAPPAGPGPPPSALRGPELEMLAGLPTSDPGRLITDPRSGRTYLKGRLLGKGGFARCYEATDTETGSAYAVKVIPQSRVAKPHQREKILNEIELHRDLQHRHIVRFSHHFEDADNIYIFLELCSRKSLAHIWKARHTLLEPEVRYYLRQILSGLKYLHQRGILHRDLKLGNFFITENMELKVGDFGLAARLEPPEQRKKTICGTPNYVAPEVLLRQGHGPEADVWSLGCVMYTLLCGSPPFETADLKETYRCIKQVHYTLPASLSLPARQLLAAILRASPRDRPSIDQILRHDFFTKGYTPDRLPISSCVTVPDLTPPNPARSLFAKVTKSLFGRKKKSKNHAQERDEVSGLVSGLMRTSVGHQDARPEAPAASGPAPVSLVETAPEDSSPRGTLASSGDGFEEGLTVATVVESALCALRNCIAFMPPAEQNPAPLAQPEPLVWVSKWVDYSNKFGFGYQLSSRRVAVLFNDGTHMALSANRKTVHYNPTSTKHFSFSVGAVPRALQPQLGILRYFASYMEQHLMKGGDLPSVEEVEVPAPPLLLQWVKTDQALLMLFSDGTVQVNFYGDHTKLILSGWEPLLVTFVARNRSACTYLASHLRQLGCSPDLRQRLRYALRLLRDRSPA

[10] = target: kinases (KINOMEscan panel) (Homo sapiens, UniProt Q9P1W9); design: method as in original PKIS2 published data; conditions: PIM2; Published KINOMEscan; ref original PKIS2 published data; cited from earlier work
Chain of kinases (KINOMEscan panel) (Homo sapiens, UniProt Q9P1W9) (Q9P1W9 whole entry): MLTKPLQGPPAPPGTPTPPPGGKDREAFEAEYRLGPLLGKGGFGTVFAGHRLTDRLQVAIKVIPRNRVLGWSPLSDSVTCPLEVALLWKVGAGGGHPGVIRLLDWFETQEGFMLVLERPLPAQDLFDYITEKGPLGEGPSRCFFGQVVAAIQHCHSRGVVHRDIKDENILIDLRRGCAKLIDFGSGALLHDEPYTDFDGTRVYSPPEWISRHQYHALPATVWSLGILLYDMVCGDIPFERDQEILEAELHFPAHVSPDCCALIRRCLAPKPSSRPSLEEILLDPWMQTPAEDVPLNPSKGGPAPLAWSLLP

MAPK10/JNK3 = MAPK10/JNK3 (Homo sapiens, UniProt P53779); assay type: binding
Chain of MAPK10/JNK3 (P53779 whole entry): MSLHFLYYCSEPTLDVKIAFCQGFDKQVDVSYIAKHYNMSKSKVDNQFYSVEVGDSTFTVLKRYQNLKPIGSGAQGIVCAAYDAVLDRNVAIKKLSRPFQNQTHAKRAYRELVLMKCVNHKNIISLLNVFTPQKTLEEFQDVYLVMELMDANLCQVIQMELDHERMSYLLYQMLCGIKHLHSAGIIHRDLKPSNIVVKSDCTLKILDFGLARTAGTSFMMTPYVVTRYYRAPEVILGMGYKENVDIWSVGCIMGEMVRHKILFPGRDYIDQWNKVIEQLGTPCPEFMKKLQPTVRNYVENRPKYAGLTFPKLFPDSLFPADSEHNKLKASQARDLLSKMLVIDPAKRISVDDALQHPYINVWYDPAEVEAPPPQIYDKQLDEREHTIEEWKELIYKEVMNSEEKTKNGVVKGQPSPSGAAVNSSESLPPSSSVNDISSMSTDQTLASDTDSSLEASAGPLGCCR

STK10/LOK = STK10/LOK (Homo sapiens, UniProt O94804); assay type: binding

T1 sequence (Q9UKI8 whole entry): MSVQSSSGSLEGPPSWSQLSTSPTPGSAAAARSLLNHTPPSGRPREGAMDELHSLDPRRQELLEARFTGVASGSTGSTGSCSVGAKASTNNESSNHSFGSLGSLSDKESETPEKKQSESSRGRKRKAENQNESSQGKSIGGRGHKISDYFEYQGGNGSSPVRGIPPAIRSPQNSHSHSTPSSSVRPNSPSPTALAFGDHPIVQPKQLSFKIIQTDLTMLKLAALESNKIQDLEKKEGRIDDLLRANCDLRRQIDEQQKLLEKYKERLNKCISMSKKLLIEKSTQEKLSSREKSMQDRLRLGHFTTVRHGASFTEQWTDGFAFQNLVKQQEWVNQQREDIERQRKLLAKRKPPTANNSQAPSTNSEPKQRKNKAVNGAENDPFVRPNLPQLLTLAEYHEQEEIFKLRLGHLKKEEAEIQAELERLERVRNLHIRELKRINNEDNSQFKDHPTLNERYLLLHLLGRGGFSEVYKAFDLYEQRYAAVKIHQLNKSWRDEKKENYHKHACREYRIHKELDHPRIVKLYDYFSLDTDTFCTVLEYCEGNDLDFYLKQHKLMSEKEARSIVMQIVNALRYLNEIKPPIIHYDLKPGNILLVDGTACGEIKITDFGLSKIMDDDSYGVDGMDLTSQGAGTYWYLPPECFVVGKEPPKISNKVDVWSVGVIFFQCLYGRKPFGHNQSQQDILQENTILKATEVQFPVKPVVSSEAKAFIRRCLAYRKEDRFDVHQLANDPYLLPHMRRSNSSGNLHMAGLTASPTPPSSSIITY

Cc1cccc(-c2nc(Nc3ccc4ncsc4c3)c3ccccc3n2)n1 [NK140]
inhibition at 2 µM (TLK1): 48.9% | inhibition at 2 µM [1]: 8.7% | KiNativ in-cell binding, CaMK1 [2]: -56.2

Cc1cccc(-c2nc(Nc3ccncc3)c3ccccc3n2)n1 [NK215]
KINOMEscan EPHA2 [3]: 18 | KINOMEscan CSNK2A1 [4]: 0 | KINOMEscan TYRO3 [5]: 0 | KINOMEscan NEK5 [6]: 10 | KINOMEscan MAP3K14 [7]: 0 | KINOMEscan PIP5K1A [8]: 10 | KINOMEscan PLK3 [9]: 0 | KINOMEscan PIM2 [10]: 18

Cc1cccc(-c2nc(N(C)c3ccc4ncsc4c3)c3ccccc3n2)n1 [NK-161]
KINOMEscan MAPK10/JNK3 (MAPK10/JNK3): 16 | KINOMEscan STK10/LOK (STK10/LOK): 19

Reference: paper PMC9851200, “Multiparameter phenotypic screening for endogenous TFEB and TFE3 translocation identifies novel chemical series modulating lysosome function” (Autophagy, 2022)
